Source: PubChem BioAssay (NCI)
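48-hour exposure; five concentrations; linearly interpolated endpoints. Abbreviation: GI50, concentration required for 50% inhibition of growth. Definition used: TGI = concentration required for complete inhibition of growth.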

How the values were obtained:
Assay in all cases: NCI anticancer screen, dose series, 48 h
NCI-H522 lung = system: NCI-H522 lung
SK-MEL-28 melanoma = system: SK-MEL-28 melanoma
HT29 colon = system: HT29 colon
A498 renal = system: A498 renal
COLO 205 colon = system: COLO 205 colon
OVCAR-5 ovarian = system: OVCAR-5 ovarian
HOP-92 NSCLC = system: HOP-92 NSCLC
SF-539 CNS = system: SF-539 CNS
LOX IMVI melanoma = system: LOX IMVI melanoma
BT-549 breast = system: BT-549 breast

| Structure (SMILES) | TGI (NCI-H522 lung) [µM] | TGI (SK-MEL-28 melanoma) [µM] | TGI (HT29 colon) [µM] | TGI (A498 renal) [µM] | TGI (COLO 205 colon) [µM] | TGI (OVCAR-5 ovarian) [µM] | TGI (HOP-92 NSCLC) [µM] | TGI (SF-539 CNS) [µM] | TGI (LOX IMVI melanoma) [µM] | GI50 (NCI-H522 lung) [µM] | GI50 (SK-MEL-28 melanoma) [µM] | GI50 (BT-549 breast) [µM] | TGI (BT-549 breast) [µM] | GI50 (HT29 colon) [µM] | GI50 (A498 renal) [µM] | GI50 (COLO 205 colon) [µM] | GI50 (OVCAR-5 ovarian) [µM] | GI50 (SF-539 CNS) [µM] | GI50 (LOX IMVI melanoma) [µM] | GI50 (HOP-92 NSCLC) [µM] |
| --- | --- | --- | --- | --- | --- | --- | --- | --- | --- | --- | --- | --- | --- | --- | --- | --- | --- | --- | --- | --- |
| Cc1cc(Br)ccc1N=NC1C(=O)ON=C1c1ccccc1 (stereo not given) | > 100 | > 100 | > 100 | > 100 | 29.6 | > 100 | > 100 | > 100 | > 100 |  |  |  |  |  |  |  |  |  |  |  |
| COc1cc(Br)c(C2OCCCO2)cc1OCc1ccccc1 | > 100 | > 100 | > 100 | > 100 | > 100 | > 100 | 64.3 | > 100 | > 100 |  |  |  |  |  |  |  |  |  |  |  |
| CCn1c(O)c(C(=O)Nc2cccs2)c(=O)n(CC)c1=S | 38.4 | 32.2 | 31.9 | 36.8 | 32.2 | 61.5 | 47.8 | 33.1 | 33.3 |  |  |  |  |  |  |  |  |  |  |  |
| Cc1ccccc1C1N=C2Oc3ccccc3C=C2C(=O)N1 (stereo not given) | 3.32 | > 100 | > 100 | 2.58 | 15 | > 100 |  | 6.88 | > 100 | 0.556 | 4.57 | 7.32 | > 100 | 4.48 | 0.347 | 1.46 | 2.51 | 1.75 | 30.5 |  |
| BrC(/C=N/Nc1nnc(-c2ccccc2)c(-c2ccccc2)n1)C(Br)c1ccccc1 (stereo not given) | 54.1 | > 100 | > 100 | > 100 | > 100 | > 100 | 64.5 | > 100 | > 100 |  |  |  |  |  |  |  |  |  |  |  |
| CCOc1ccc(/C=C/C(=O)c2sc(NNC(C)=O)nc2C)cc1 | > 100 | > 100 | > 100 | > 100 | > 100 | > 100 | > 100 | > 100 | > 100 |  |  |  |  |  |  |  |  |  |  |  |
| COc1ccc(Cc2c3cc(OC)c(OC)cc3cc[n+]2C)cc1 | > 85.9 | > 58.6 | > 27.1 | > 100 | > 16.7 | > 100 | 58.7 | > 53.1 | > 24.7 |  |  |  |  |  |  |  |  |  |  |  |
| COc1cc(CC2c3cc(OC)c(OC)cc3CCN2C)c(C(=O)O)cc1OC (stereo not given) | > 100 | > 100 | > 100 | > 100 | > 100 | > 100 | > 100 | > 100 | > 100 |  |  |  |  |  |  |  |  |  |  |  |
| C[C@H](O)CCC(=O)c1ccoc1 | > 100 | > 100 | > 100 | > 100 | > 100 | > 100 | > 100 | > 100 | > 100 |  |  |  |  |  |  |  |  |  |  |  |
| CC1(C)OC2OC(/C=C/[N+](=O)[O-])C3OC(C)(C)OC3C2O1 (stereo not given) | 3.36 | 32.9 | 40.1 | 47.1 | 14.5 | 38.1 | 19.6 | 28.3 | 22.1 |  |  |  |  |  |  |  |  |  |  |  |
| CN(C)c1ccc(-c2cc(-c3cccc(NS(C)(=O)=O)c3)nc(N)c2C#N)cc1 | 1.21 | 35.1 | 0.457 | 38.8 | 0.0729 | > 74.8 |  | 0.173 | 13.5 | < 0.013 | 0.0508 | 0.0645 | 4.65 | 0.0319 | 0.054 | 0.025 | 0.121 | 0.0279 | 0.0466 |  |
| CC(=O)NNc1nc(C)c(C(=O)NNC(=O)C(=O)Nc2ccc(C)cc2[N+](=O)[O-])s1 | 78 | > 100 | > 100 | > 100 | > 100 | > 100 | > 100 | > 100 | > 100 |  |  |  |  |  |  |  |  |  |  |  |
| O=C(c1ccco1)c1c(C(F)(F)F)n([O-])c2cc(Cl)c(Cl)cc2[n+]1=O | 1.33 | 6.45 | 17.3 | 3.62 | 18.3 | 1.76 | 2.15 | 1.53 | 0.52 | 0.202 | 2.97 |  |  | 1.22 | 1.53 | 1.82 | 0.935 | 0.768 | 0.169 | 0.851 |
| CCc1cccc(CC)c1NC1=CC(=O)C(=O)c2ccccc21 | 28.3 | 37.4 | 3.95 | 39.5 | > 100 | 31 | 29.6 | 35.4 | 29.3 |  |  |  |  |  |  |  |  |  |  |  |
| COc1cc(C(=O)N[C@@H]2CCCN(C)C2)ccc1Nc1ncc2c(n1)N(C1CCCC1)CC(C)(C)C(=O)N2C | 0.0575 | 2.04 | 6.46 | 0.774 | 1.18 | 17.5 |  | 1.69 | 1.87 | 0.0209 | 0.153 | 0.73 | 18 | 0.0363 | 0.0715 | 0.0412 | 0.0608 | 0.203 | 0.0541 |  |
| O=P(c1ccccc1)(c1ccccc1)C1CC=C2CCCCCC2C1 (stereo not given) | 41 | > 10 | > 100 | 97.7 | 56.4 | 62.2 | 39.9 | > 10 | 65 |  |  |  |  |  |  |  |  |  |  |  |
